Columns and labels:
[1] = target: Mu-type opioid receptor (Rattus norvegicus, UniProt P33535); experiment: Displacement of [3H]DAMGO from mu opioid receptor in rat cerebellum membrane; format: cell membranes
[2] = target: Delta-type opioid receptor (Rattus norvegicus, UniProt P33533); experiment: Displacement of [3H]DADLE from delta opioid receptor in rat cerebellum membrane; format: cell membranes
[3] = target: Kappa-type opioid receptor (Cavia porcellus, UniProt P41144); experiment: Displacement of [3H]U-69593 from kappa opioid receptor in guinea pig cerebellum; format: tissue-based
Kappa-type opioid receptor, sequence (P41144 whole entry): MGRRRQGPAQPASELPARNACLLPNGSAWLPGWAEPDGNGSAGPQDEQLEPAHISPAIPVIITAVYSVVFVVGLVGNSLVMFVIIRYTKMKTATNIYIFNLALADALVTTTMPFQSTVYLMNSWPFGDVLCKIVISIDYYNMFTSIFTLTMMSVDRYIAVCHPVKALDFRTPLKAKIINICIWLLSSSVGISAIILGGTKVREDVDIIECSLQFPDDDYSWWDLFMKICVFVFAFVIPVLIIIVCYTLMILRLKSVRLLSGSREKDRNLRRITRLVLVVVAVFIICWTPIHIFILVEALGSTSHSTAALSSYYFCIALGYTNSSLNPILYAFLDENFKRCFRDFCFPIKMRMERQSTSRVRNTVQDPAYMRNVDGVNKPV

[4] = organism: Rattus norvegicus; experiment: Selectivity ratio of Ki for mu opioid receptor in rat cerebellum membrane to Ki for delta opioid receptor in rat cerebellum membrane; format: cell membranes
[5] = Selectivity ratio of Ki for kappa opioid receptor in guinea pig cerebellum to Ki for delta opioid receptor in rat cerebellum membrane; format: cell membranes
[6] = target: T1, Delta-type opioid receptor (Homo sapiens, UniProt P41143); experiment: Ratio of EC50 for drug to EC50 for TAN-67 against human recombinant delta opioid receptor
T1 sequence (P41143 whole entry): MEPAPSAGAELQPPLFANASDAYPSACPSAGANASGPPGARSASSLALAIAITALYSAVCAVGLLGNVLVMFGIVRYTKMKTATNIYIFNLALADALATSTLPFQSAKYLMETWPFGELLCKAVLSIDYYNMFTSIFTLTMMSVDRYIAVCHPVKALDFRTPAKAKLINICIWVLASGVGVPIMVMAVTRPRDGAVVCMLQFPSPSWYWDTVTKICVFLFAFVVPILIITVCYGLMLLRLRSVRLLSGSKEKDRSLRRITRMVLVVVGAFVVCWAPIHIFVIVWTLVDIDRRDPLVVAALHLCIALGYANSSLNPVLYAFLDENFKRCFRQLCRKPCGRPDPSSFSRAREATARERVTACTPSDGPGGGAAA

[7] = target: T1, Delta-type opioid receptor; experiment: Agonist activity at human recombinant delta opioid receptor expressed in HEK293 cells by [35S]GTPgammaS binding assay; format: functional, cell-based
[8] = test system: Mus musculus; experiment: Analgesic activity against acetic acid-induced writhing in sc dosed mouse; format: functional
[9] = target: T1, Delta-type opioid receptor; experiment: Agonist activity at human recombinant delta opioid receptor expressed in CHO cells by [35S]GTPgammaS binding assay; format: functional, cell-based

Mu-type opioid receptor, sequence (P33535 whole entry): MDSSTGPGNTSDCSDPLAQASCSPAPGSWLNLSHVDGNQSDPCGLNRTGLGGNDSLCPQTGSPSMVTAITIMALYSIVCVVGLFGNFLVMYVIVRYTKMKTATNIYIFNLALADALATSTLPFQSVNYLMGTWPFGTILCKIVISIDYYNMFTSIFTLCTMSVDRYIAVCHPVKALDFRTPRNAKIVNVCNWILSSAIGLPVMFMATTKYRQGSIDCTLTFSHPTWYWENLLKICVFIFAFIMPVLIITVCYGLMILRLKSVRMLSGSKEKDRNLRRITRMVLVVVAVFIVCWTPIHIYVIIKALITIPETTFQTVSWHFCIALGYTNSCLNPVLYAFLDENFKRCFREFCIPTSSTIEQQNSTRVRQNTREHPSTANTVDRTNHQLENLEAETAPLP
Delta-type opioid receptor (Rattus norvegicus, UniProt P33533), sequence (P33533 whole entry): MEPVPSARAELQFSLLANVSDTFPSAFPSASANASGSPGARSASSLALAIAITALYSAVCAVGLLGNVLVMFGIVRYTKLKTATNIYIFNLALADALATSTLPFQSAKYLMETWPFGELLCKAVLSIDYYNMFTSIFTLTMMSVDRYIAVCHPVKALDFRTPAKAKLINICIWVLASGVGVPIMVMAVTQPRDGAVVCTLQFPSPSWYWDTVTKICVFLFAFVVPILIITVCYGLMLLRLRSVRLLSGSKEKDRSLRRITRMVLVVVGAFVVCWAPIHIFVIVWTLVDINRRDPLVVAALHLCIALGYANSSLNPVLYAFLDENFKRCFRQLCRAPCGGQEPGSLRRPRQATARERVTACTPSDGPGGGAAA

## CC(C)CN1CC[C@]23Cc4nc5ccccc5cc4C[C@H]2[C@H]1Cc1ccc(O)cc13
[1]
  Ki: 23.6 nM
[2]
  Ki: 0.19 nM
[3]
  Ki: 4.41 nM
[4]
  Ratio: 124
[5]
  Ratio: 23.2
[6]
  Ratio EC50: 10
[7]
  EC50: 0.06 nM

## Oc1ccc2c(c1)[C@]13CCN(CC4CC4)[C@H](C2)[C@@H]1Cc1cc2ccccc2nc1C3
[1]
  Ki: 0.77 nM
[2]
  Ki: 0.19 nM
[3]
  Ki: 0.36 nM
[4]
  Ratio: 4.1
[5]
  Ratio: 1.9
[6]
  Ratio EC50: 10
[7]
  EC50: 0.018 nM

## CN1CC[C@]23Cc4nc5ccccc5cc4C[C@H]2[C@H]1Cc1ccc(O)cc13
[1]
  Ki: 11.5 nM
[2]
  Ki: 0.14 nM
[3]
  Ki: 10.2 nM
[4]
  Ratio: 82.4
[5]
  Ratio: 72.9
[6]
  Ratio EC50: 10
[7]
  EC50: 0.047 nM

## CN1CC[C@]2(c3cccc(O)c3)Cc3nc4ccccc4cc3C[C@H]2C1
[8]
  ED50: 31.4 mg/kg
[1]
  Ki: 284 nM
[2]
  Ki: 1.44 nM
[3]
  Ki: 732 nM
[4]
  Ratio: 197
[5]
  Ratio: 509
[7]
  EC50: 0.7 nM
[9]
  EC50: 1.4 nM
